# Bridge positions count the residues as written; N and C are the ends.
# System: mussel CALCRIa
# Experiment: Calcium mobilization assay (apoaequorin bioluminescence), dose-response, HEK 293 cells expressing mussel CALCRIa
# Type: cell-based, Mytilus galloprovincialis
# Conditions: calcium mobilization, HEK 293/apoaequorin, 1 μM to 0.01 nM
# Excerpt: The complete sequence of the Mediterranean mussel CALCRIa was amplified using specific primers (Table 1) from cDNA of a tissue mixture (mantle, adductor muscle, gills, gonads) using a proofreading DNA polymerase (iProof BIORAD, Portugal) and cloned into the pGEMT-easy vector (PROMEGA, Spain). The Mediterranean mussel CALCRIIa transcript that was found in the mantle transcriptome was incomplete and lacked the N-terminus (by comparisons with the hard-shelled mussel homologue) and so the remaining sequence (from 1–393 bp) was deduced from the hard-shelled mussel homologue receptor and the receptor was synthesised and supplied by GENESCRIPT (USA). The complete transcripts for mussel CALCRIc, CALCRIIb and CALCRIIc were only found in the hard-shelled mussel mantle transcriptome and homologues were only found in the Mediterranean mussel genome as they were absent from the species mantle transcriptome and so they were also synthesised and supplied by GENESCRIPT (USA) using the hard-shelled mussel receptor sequences as template. The mussel CALCRIb transcript was incomplete and lacked both N and C-terminal regions and it was not possible to obtain the complete transcript either by searching both mussels mantle transcriptomes or the Mediterranean mussel genome and so it was not produced. All synthetized receptors were provided in the pUC57 cloning vector by the company and receptor codon usage was optimized to favour a high level of expression in mammalian cells.
# Mammalian cell cultures and transfections followed the methodology described by[89],[90]. Mammalian HEK293 cells (ECACC, UK) were used and they were maintained in complete Dulbecco’s modified Eagle’s medium (DMEM, 4.5 g/l glucose, 110 mg/l sodium pyruvate and L-glutamine, SIGMA-ALDRICH, Spain) supplemented with 10% sterile foetal bovine serum (FBS), 0.1% penicillin: streptomycin antibiotic mix (10,000 U:10 mg/ml, Sigma) and 250 μg /ml sterile filtered 1:100 amphotericin B solution (SIGMA-ALDRICH) in a humid 5% CO2 incubator (HERAEUS, Portugal) at 37 °C. On the day prior to transfection, 2–3 × 10^5 HEK293 cells were seeded on 6 well plates (SARSTEDT, Portugal) and transfected with Fugene HD transfection reagent (2 DNA: 4 Fugene ratio, PROMEGA) following the manufacturer’s protocol. Seventy-two hours after transfection, 800 μg/ml of the antibiotic Geneticin (SIGMA-ALDRICH) was added to the medium to select and isolate stable receptor cell lines. Cell recovery was monitored daily and the medium was changed every two days until no cell death was observed. […]
# HEK293 cells stably expressing five mussel receptors (CALCRIa, CALCRIc, CALCRIIa, CALCRIIb and CALCRIIc) were stimulated with the two mussel peptides and the vertebrate (human and salmon) calcitonins. Receptor activation was assessed in vitro by measuring two intracellular signalling pathways: a) production of cAMP and b) mobilization of calcium (Ca^2+). The cellular response was initially assessed using 10 μM of each peptide. […]
# Stable cell lines expressing the mussel receptors were transiently co-transfected with the mitochondrial targeted apo-aequorin protein cloned in pcDNA3.1. Two days after transfection cells were washed, counted and resuspended in 1 ml of DMEM /F12 Ham (without phenol red)/0.1% BSA supplemented with 2 µM coelenterazine (SIGMA-ALDRICH). […] The injector system of the Biotek Synergy 4 microplate reader (USA) was used to inject 50 µl of the cell suspensions into wells containing 50 μl of the diluted peptide in DMEM / F12 Ham / 0.1% BSA. […]
substance,measurement,value
"H-CTWGGGMSDEMCSTVDIDEIQRSFQVIHDRNSP-NH2 (disulfide 1-12 (inferred)) [CALCIIa, Mediterranean mussel calcitonin-like mature peptide, 33 aa, synthesized with disulphide bond and C-terminal amidation]",Activation of mussel CALCRIa in dose-response analysis (in words),not activated

# Reference: paper PMC7200681, “The calcitonin-like system is an ancient regulatory system of biomineralization” (Scientific Reports, 2020)
